# According to publication PMC2724708, “Adenosine Kinase of T. b. rhodesiense Identified as the Putative Target of 4-[5-(4-phenoxyphenyl)-2H-pyrazol-3-yl]morpholine Using Chemical Proteomics” (PLoS Neglected Tropical Diseases, 2009):
# Like-named read-outs stand apart in the source and are kept apart here.
# Assays:
# [1] = biological target: T1, adenosine kinase of T. b. rhodesiense (TbrAK) (Trypanosoma brucei rhodesiense, UniProt Q584S0); assay: Isothermal titration calorimetry (ITC) with TbrAK; format: binding; conditions: for Kd: two-sites non-interacting binding model
# T1 sequence (Q584S0 1-345): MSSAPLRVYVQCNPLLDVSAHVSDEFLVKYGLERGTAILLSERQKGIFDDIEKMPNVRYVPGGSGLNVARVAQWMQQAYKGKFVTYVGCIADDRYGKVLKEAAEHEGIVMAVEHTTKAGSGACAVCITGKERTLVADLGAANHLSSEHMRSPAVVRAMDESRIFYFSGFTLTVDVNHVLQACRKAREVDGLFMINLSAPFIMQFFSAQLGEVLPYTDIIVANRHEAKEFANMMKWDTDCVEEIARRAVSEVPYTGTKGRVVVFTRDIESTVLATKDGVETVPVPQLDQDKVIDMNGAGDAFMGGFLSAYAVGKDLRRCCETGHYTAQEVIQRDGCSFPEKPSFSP
# Experimental: Isothermal titration calorimetry (ITC) was employed to elucidate the binding affinity of compound 1 toward TbrAK. All solutions were degassed for 5 min with gentle stirring under vacuum. TbrAK was dialyzed into buffer E2 (20 mM Tris, 150 mM NaCl, pH 7.5, 5% glycerol), diluted to 7 µM and supplemented with 1% DMSO, filtered and filled into the sample cell. The ligand solution was prepared by diluting a stock solution of compound 1 or 5 in DMSO with buffer E2 to give a final concentration of 150 µM and 1% DMSO. The final ligand solution was filtered before use. A titration experiment consisted of a first control injection of 1 µl followed by 27 injections, each of 10 µl and 20 s duration, with a 4-min interval in between. Raw data were collected, corrected for ligand heats of dilution, integrated and fit to the two-set non-interacting binding sites model using the Origin® software supplied with the instrument. The measurements were performed at least in duplicate.
# [2] = biological target: T1, adenosine kinase of T. b. rhodesiense (TbrAK); assay: Radiometric assay for EC50 determination (TbrAK hyperactivation); format: biochemical; conditions: 12 µM [2-3H]adenosine, 167 µM ATP, 0.88 nM TbrAK, 37°C
# Experimental: Radiometric assay for EC50 determination
# The EC50 for hyperactivation of TbrAK by compound 1 was obtained by monitoring the conversion of [2-3H]adenosine to [2-3H]AMP. Reactions were executed at 37°C in a final volume of 30 µl containing 20 mM Hepes, 50 mM NaCl, 167 µM ATP, 167 µM MgCl2, 0.33 % BSA, and 1.0 % DMSO. The concentration of [2-3H]adenosine was kept constant at 12 µM while compound 1 was varied in the range of 0-100 µM. The reaction was started by the addition of 1 ng (0.88 nM) TbrAK. The reactions were incubated and 5 µl aliquots were spotted on 5 mm diameter DE81-cellulose disks placed in a 96-well plate to stop the reaction. The disks were washed 3 times with 250 µl 5 mM ammonium formate, once with H2O, transferred to scintillation vials, and then soaked with 2 ml of the displacement solution (100 mM HCl, 200 mM KCl) and gently shaken for 1 minute to elute the phosphorylated product. After adding 10 ml scintillation liquid, the samples were counted. For comparative reasons the activity recorded in absence of compound was set to 100 %. The mean of four independent measurements is reported.
compound,measurement,setting,value
"c1ccc(Oc2ccc(-c3cc(N4CCOCC4)[nH]n3)cc2)cc1 [compound 1, 4-[5-(4-phenoxyphenyl)-2H-pyrazol-3-yl]morpholine]",molecules of compound bound per molecule of enzyme,[1],two
same,"ΔHbind, high affinity binding site",[1],-3.05 ± 0.77 kcal/mol
same,"ΔHbind, low affinity binding site",[1],-1.13 ± 0.24 kcal/mol
same,Kd,"[1]; read-out: KD, high affinity binding site",75 ± 20 nM
same,Kd,"[1]; read-out: KD, low affinity binding site",497 ± 34 nM
same,EC50,[2],38 ± 12 nM
